From patent US10543198B2 (Celgene Quanticel Research, Inc., priority 2014, dated 2020) come the findings set out here.

Each structure is given as a SMILES string.

Assay [1] addresses full-length human LSD1 (Homo sapiens (Human), UniProt O60341). As to the kind of experiment: In Vitro Enzyme Inhibition Assay - LSD-1 (TR-FRET). In kind it is biochemical. Particulars: 0.1 nM LSD1, H3K4me1-biotin peptide. Here is the method:
This assay determines the ability of a test compound to inhibit LSD1 demethylase activity.
The enzymatic assay of LSD1 activity is based on Time Resolved-Fluorescence Resonance Energy Transfer (TR-FRET) detection.
The ability of the compounds disclosed herein to inhibit LSD1 activity was quantified and the respective IC50 value was determined.

Assay [2] concerns THP-1 (AML) cells. The assay can be described thus: LSD1 CD11b Cellular Assay (flow cytometry). In kind it is cell-based. Particulars: Homo sapiens, 96 h; CD11b expression in THP-1 cells, 4 days incubation. On the procedure:
To analyze LSD1 inhibitor efficacy in cells, a CD11b flow cytometry assay was performed. LSD1 inhibition induces CD11b expression in THP-1 (AML) cells which can be measured by flow cytometry. […] LSD1 test compounds were serially diluted in DMSO. The dilutions were added to each well accordingly to a final concentration of 0.2% DMSO. The cells were incubated at 37 degrees Celsius in 5% CO2 for 4 days. 250 μL of each well was transferred to a well in a 96 well round bottom plate. The plate was centrifuged at 1200 rpm at 4 degrees Celsius in a Beckman Coulter Alegra 6KR centrifuge for 5 minutes. The media was removed leaving the cells at the bottom of the wells. The cells were washed in 100 μL cold HBSS (Hank's Balanced Salt Solution) plus 2% BSA (Bovine Serum Albumin) solution and centrifuged at 1200 rpm at 4 degrees Celsius for 5 minutes. The wash was removed. […] The cells were centrifuged and washed two times in 100 μl HBSS plus 2% BSA. After the final spin the cells were resuspended in 100 μL HBSS plus 2% BSA containing 1 ug/mL DAPI (4′,6-diamidino-2-phenylindole). The cells were then analyzed by flow cytometry in a BD FACSAria machine. Cells were analyzed for CD11b expression. The percent of CD11b expressing cells for each inhibitor concentration was used to determine an IC50 curve for each compound analyzed.

`Cc1ccc(-c2nc3ccn(CC4(F)CCNC4)c3cc2-c2ccc(C#N)cc2)cc1` (stereo not shown) [Example 9, 4-[1-[(3-fluoropyrroridin-3-yl)methyl]-5-(4-methylphenyl)pyrrolo[3,2-b]pyridin-6-yl]benzonitrile]: the results for the IC50 in assay [1] and in assay [2] were < 0.1 µM and 0.1 to 1 µM, respectively.

As to `CNC1CCN(c2cnc(-c3cnc4c(cnn4C)c3)c(-c3ccc(C#N)c(F)c3)n2)CC1` [Example 59, 2-fluoro-4-{6-[4-(methylamino)piperidyl]-3-(1-methylpyrazolo[5,4-b]pyridin-5-yl)pyrazin-2-yl}benzenecarbonitrile], the IC50 in assay [1] and in assay [2] was < 0.1 µM each time.
